These results are taken from publication PMC7532674, “Synthesis and preliminary studies of ^11C-labeled tetrahydro-1,7-naphthyridine-2-carboxamides for PET imaging of metabotropic glutamate receptor 2” (Theranostics, 2020).

One data set addresses T1, human mGlu2 (Homo sapiens, UniProt Q14416).
T1 construct: expressed in transfected cells
Briefly: Human mGlu2 GIRK thallium flux assay. As to conditions: HEK293 cells, EC80 glutamate, triplicate assays (14g duplicate). Type of data set: cell-based. Here is the method:
(§1) Cell Line Generation and Thallium Flux Assays. The general procedure for the preparation of human mGlu2 and mGlu3 was described previously, [56] with minor modifications in this work. The cloning sites were NheI/NotI for both receptors. HEK GIRK cells, generously provided by Lily Jan (University of California San Francisco, San Francisco, CA), were transfected with 24 μg of DNA using Fugene6 (Promega), stable transfectants were selected with 1 μg/mL puromycin dihydrochloride (Sigma-Aldrich, St. Louis, MO), and polyclonal human mGlu2 GIRK and mGlu3 GIRK cell lines were established. Cells were maintained following selection in 45% DMEM, 45% Ham's F12, 10% FBS, 100 units/mL penicillin/streptomycin, 20 mM HEPES, pH 7.3, 1 mM sodium pyruvate, 2 mM glutamine, 700 μg/mL G418 (Mediatech, Inc., Herndon, VA), and […] puromycin (growth media) at 37 °C in the presence of 5% CO2. All cell culture reagents were purchased from Invitrogen Corp. (Carlsbad, CA) unless otherwise noted.
(§2) Human mGlu2 and mGlu3 Thallium Flux in Vitro Assays. Potencies of these NAMs at both mGlu2 and mGlu3 were investigated by thallium flux through GIRK channels, which was disclosed in detail as well as described in our previous work. In particular, cells were plated into 384-well, black-walled, clear-bottomed poly(D-lysine_-coated plates at a density of 15 000 cells per well in 20 μL of DMEM containing 10% dialyzed FBS, 20 mM HEPES, and 100 units/mL penicillin/streptomycin (assay media). Plated cells were incubated overnight at 37 °C in the presence of 5% CO2. The next day, the medium was exchanged from the cells to assay buffer [Hanks' balanced salt solution (Invitrogen) containing 20 mM HEPES, pH 7.3] using an ELX405 microplate washer (BioTek), leaving 20 μL per well, followed by the addition of 20 μL per well of FluoZin2-AM (330 nM final concentration) indicator dye (Invitrogen; prepared as a stock in DMSO and mixed in a 1:1 ratio with Pluronic acid F-127) in assay buffer. Cells were incubated for 1 h at room temperature, and the dye was exchanged to assay buffer using an ELX405, leaving 20 μL per well. For concentration-response curve experiments, compounds were serially diluted 1:3 into 10 point concentration-response curves and were transferred to daughter plates using an Echo acoustic plate reformatter (Labcyte, Sunnyvale, CA). Test compounds were diluted to 2 times their final desired concentration in assay buffer (0.3% DMSO final concentration). Agonists were diluted in thallium buffer [125 mM sodium bicarbonate (added fresh the morning of the experiment), 1 mM magnesium sulfate, 1.8 mM calcium sulfate, 5 mM glucose, 12 mM thallium sulfate, and 10 mM HEPES, pH 7.3] at 5 times the final concentration to be assayed. Cell plates and compound plates were loaded onto a kinetic imaging plate reader (FDSS 6000 or 7000; Hamamatsu Corporation, Bridgewater, NJ). Appropriate baseline readings were taken (10 images at 1 Hz; excitation, 470 ± 20 nm; emission, 540 ± 30 nm), and test compounds were added in a 20 μL volume and incubated for approximately 1 h at room temperature before the addition of 10 μL of thallium buffer with or without an EC80 concentration of the agonist glutamate for affinity evaluation experiments or with a full concentration-response of glutamate for Schild analysis experiments. After the addition of agonist, data were collected for approximately an additional 2.5 min. Data were analyzed using Excel (Microsoft Corp, Redmond, WA). The slope of the fluorescence increase beginning 5 s after thallium/agonist addition and ending 15 s after thallium/agonist addition was calculated, corrected to vehicle and maximal agonist control slope values, and plotted using either XLfit (ID Business Solutions Ltd.) or Prism software (GraphPad Software, San Diego, CA) to generate concentration-response curves. Potencies were calculated from fits using a four-point parameter logistic equation.

The next data set concerns the target T2, human mGlu3 (Homo sapiens, UniProt Q14832).
T2 construct: expressed in transfected cells
The data set is described as follows: Human mGlu3 GIRK thallium flux assay. Type of data set: cell-based. The settings on record: HEK293 cells, triplicate assays (14g duplicate). The protocol:
as §1, §2

The target in data set [1] is T3, mGlu2 (Rattus norvegicus, UniProt P31421). The data set is described as follows: Dynamic PET imaging in rat brain. Type of data set: in vivo, SD rats. Set-up: from tissue; host or cells: brain of living SD rats. Here is the method: As we previously reported, PET scans were carried out by an Inveon PET scanner (Siemens Medical Solutions, Knoxville, TN, USA). During the scan, SD rats were anesthetized by oxygen mixed with 1-2% (v/v) isoflurane and kept body temperature at […] by a commercially available circulation system (T/Pump TP401, Gaymar Industries, Orchard Park, NY). A 24-gauge catheter was inserted into the tail vein to facilitate a bolus injection. The radiotracer [^11C]14a or [^11C]14b (ca. 1 mCi / 150-200 μL) was injected into the rat via the preinstalled catheter, and the dynamic acquisition of PET signals in rat brain was started at the same time and lasted for 60 min in 3D list mode. For pretreatment studies, 14a (1 mg/kg for [^11C]14a for self-blocking study in Figure S2; 3 mg/kg for [^11C]14b for blocking study in Figure S12C) or 14b (1 mg/kg for [^11C]14b for self-blocking study in Figure S12B), formulated in 300 μL of saline containing 10% ethanol and 5% Tween 80, was injected at 30 min via the tail vein catheter prior to the injection of [^11C]14a or [^11C]14b. The dynamic emission data were reconstructed by filtered back projection using Hanning's filter with a Nyquist cutoff of 0.5 cycle/pixel into 33 frames (10 s × twelve frames, 20 s × three frames, 30 s × three frames, 60 s × three frames, 150 s × three frames, and 300 s × nine frames). The TACs of [^11C]14a or [^11C]14b were analyzed from volumes of interest in the striatum, hippocampus, cortex, thalamus, pons and cerebellum normalized to a rat brain MRI template using PMOD software (version 3.4; PMOD technology, Zurich, Switzerland). The radioactivity was decay-corrected to the injection time and expressed as the standardized uptake value (SUV) which equals to (radioactivity per milliliter of tissue per injected radioactivity) × (gram of body weight). To obtain non-displaceable binding potential (BPND), simplified reference tissue model (SRTM), [54] was carried out on the basis of kinetic analysis using PMOD software. We acquired BP-parametric images using kinetic modeling without masking. Respective TACs in receptor-rich or -poor region were loaded for production of BP-map with default setting. Representative parametric images scaled with BPND were reconstructed by PMOD software using TACs in mGlu2-enriched and reference regions. Pons was selected as the reference region for mGlu2 (the lowest and consistent brain uptake and washout kinetics between baseline and blocking conditions). It should be noted that while there is a low-level expression of mGlu2 in the pons, it is not without existence. A reference region should be a region devoid of the target, but with similar tracer transport or diffusion to the other regions of interest with expression of the target. Therefore, there are some limitations when using pons as the reference region. For example, the partial volume effect in PET likely leads to spillover of activity from nearby higher uptake regions into the pons, artificially increasing the time-activity curve in the pons.
T3 sequence (P31421 19-872): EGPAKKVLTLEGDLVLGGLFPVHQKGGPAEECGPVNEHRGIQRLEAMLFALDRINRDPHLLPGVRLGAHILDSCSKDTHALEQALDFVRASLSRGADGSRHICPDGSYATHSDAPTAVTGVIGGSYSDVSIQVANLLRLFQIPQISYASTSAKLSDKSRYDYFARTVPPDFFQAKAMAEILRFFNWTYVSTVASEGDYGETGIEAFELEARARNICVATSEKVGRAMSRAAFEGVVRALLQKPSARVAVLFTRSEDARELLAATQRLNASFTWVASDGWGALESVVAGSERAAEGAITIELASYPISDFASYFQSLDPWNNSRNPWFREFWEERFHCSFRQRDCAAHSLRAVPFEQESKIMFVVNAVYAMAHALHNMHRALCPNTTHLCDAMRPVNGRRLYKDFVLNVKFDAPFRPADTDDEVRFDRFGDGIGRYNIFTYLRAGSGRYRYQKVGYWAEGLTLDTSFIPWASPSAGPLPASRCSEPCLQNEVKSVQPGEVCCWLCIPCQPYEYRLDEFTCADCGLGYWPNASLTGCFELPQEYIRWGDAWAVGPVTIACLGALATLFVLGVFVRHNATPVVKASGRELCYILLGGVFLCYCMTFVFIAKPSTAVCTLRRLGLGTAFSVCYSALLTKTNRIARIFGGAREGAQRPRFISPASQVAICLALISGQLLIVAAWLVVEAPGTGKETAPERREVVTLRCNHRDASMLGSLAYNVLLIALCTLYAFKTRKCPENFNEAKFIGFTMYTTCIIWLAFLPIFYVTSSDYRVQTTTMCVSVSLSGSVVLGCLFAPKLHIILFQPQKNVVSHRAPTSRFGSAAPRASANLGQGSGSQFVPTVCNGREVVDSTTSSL

The target in data set [2] is T3, mGlu2. The data set is described as follows: In vitro autoradiography in rat brain sections. As to conditions: preincubated with unlabeled QCA, 14b or 14a at 10 µM. Set-up: from tissue; host or cells: Sprague-Dawley rat brain sections. Type of data set: binding. Here is the method: Sagittal rat brain slices were prepared into 20 μm sections with a cryostat (HM560; Carl Zeiss, Oberkochen, Germany), mounted on air plasma spray-coated glass slides, and stored at -80 °C before used for experiments. The sections were preincubated for 15 min in a glass tank containing 200 mL of Tris·HCl buffer (50 mM, pH 7.4) consisting of 2 mM of MgCl2 and 1.2 mM of CaCl2 at room temperature. After preincubation, the sections were incubated in a fresh buffer containing [^11C]14a or [^11C]14b (250 µCi in 200 mL buffer; molar activity 2.7 Ci/µmol of [^11C]14a and 2.5 Ci/µmol of [^11C]14b, respectively) in the glass tank for 30 min at room temperature. For blocking studies, non-radioactive 14a or 14b (10 μM) and QCA (10 μM) were chosen to determine the specificity of radiotracers for binding mGlu2. Six serial brain sections were used for each conditions. After incubation, brain sections were washed with cold buffer (3 × 5 min), immersed in cold distilled water, and then dried with cold air. The sections were placed in contact with imaging plates (BAS-MS2025, FUJIFILM, Tokyo, Japan). Autoradiograms were obtained and photostimulated luminescence (PSL) values in the ROIs were measured using a Bio-Imaging Analyzer System (BAS5000, FUJIFILM).

Data set [3] relates to mGlu2. As to conditions: cited from earlier work.

T2 sequence (Q14832 23-879): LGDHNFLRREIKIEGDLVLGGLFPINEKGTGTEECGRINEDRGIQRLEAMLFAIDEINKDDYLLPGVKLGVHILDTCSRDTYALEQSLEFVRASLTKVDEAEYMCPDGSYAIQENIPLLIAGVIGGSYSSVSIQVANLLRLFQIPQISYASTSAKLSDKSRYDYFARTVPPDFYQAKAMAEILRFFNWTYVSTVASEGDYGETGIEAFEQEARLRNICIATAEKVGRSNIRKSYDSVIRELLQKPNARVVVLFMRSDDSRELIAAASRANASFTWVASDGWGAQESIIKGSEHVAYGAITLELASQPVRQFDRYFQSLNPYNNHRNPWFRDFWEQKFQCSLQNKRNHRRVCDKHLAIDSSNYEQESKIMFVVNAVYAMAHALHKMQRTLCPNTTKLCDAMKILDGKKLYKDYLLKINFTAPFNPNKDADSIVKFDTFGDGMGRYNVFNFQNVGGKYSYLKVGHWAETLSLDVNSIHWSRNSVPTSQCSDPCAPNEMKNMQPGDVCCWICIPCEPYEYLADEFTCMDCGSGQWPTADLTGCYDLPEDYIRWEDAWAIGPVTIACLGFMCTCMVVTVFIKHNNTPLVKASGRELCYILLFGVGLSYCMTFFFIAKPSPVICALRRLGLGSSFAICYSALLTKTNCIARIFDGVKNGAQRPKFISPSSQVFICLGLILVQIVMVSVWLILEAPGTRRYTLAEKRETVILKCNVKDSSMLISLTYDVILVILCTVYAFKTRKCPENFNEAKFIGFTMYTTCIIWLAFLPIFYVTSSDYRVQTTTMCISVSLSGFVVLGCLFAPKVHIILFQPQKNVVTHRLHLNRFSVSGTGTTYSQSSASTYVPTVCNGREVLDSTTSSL
T1 sequence (Q14416 19-872): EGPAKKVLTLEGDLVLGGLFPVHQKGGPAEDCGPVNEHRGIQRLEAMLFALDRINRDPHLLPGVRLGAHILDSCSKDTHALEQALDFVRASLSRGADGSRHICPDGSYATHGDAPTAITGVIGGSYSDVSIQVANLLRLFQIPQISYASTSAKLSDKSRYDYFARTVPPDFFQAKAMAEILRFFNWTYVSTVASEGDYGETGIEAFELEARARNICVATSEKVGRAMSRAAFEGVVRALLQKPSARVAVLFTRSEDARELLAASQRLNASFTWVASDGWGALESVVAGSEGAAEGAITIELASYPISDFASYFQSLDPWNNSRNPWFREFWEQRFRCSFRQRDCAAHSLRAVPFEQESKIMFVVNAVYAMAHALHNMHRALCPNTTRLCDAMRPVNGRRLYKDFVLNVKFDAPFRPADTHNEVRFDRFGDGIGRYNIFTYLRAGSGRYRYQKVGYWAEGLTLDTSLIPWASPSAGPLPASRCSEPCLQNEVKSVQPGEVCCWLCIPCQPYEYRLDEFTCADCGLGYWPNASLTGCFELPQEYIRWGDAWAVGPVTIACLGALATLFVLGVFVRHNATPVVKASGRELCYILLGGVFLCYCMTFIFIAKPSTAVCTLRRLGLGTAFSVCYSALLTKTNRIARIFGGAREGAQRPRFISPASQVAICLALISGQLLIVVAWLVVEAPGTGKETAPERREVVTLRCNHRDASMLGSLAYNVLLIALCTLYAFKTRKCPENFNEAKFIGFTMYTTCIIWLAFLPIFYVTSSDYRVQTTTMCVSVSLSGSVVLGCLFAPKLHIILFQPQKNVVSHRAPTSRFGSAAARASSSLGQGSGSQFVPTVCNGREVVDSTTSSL

In the case of `COc1ccc(-c2cc(C(N)=O)nc3c2CCN(Cc2ccnc(OC)c2)C3)c(F)c1` [14a, 4-(2-fluoro-4-methoxyphenyl)-7-((2-methoxypyridin-4-yl)methyl)-5,6,7,8-tetrahydro-1,7-naphthyridine-2-carboxamide], the IC50 (commonly the concentration needed to halve the response being measured) was 39 nM at human mGlu2 and above 10 µM against human mGlu3.

As to `COc1cc(CN2CCc3c(-c4ccc(C)cc4F)cc(C(N)=O)nc3C2)ccn1` [14c, 4-(2-fluoro-4-methyphenyl)-7-((2-methoxypyridin-4-yl)methyl)-5,6,7,8-tetrahydro-1,7-naphthyridine-2-carboxamide], the IC50 against human mGlu2 was 129 nM; against human mGlu3 it was above 10 µM.

For `COc1cc(CN2CCc3c(-c4ccc(F)cc4OC)cc(C(N)=O)nc3C2)ccn1` [14d, 4-(4-fluoro-2-methoxyphenyl)-7-((2-methoxypyridin-4-yl)methyl)-5,6,7,8-tetrahydro-1,7-naphthyridine-2-carboxamide], the figures for the IC50 against human mGlu2 and at human mGlu3 were 39 nM and above 10 µM, respectively.

For the molecule `COc1ncc(CN2CCc3c(-c4ccc(C)cc4F)cc(C(N)=O)nc3C2)cn1` [14e, 4-(2-fluoro-4-methyphenyl)-7-((2-methoxypyrimidin-5-yl)methyl)-5,6,7,8-tetrahydro-1,7-naphthyridine-2-carboxamide], the IC50 at human mGlu2 is 106 nM; on human mGlu3, above 10 µM.

On to `COc1ccc(-c2cc(C(N)=O)nc3c2CCN(Cc2cnc(OC)nc2)C3)c(F)c1` [14f, 4-(2-fluoro-4-methoxyphenyl)-7-((2-methoxypyrimidin-5-yl)methyl)-5,6,7,8-tetrahydro-1,7-naphthyridine-2-carboxamide], for which the 50% inhibitory concentration (IC50) is 318 nM against human mGlu2 and above 10 µM against human mGlu3.

Take `COc1cc(CN2CCc3c(-c4ccc(F)cc4Cl)cc(C(N)=O)nc3C2)ccn1` [14g]: the IC50 against human mGlu2 is 87 nM; against human mGlu3, above 30 µM.

Regarding `COc1cc(CN2CCc3c(-c4ccc(O[11CH3])cc4F)cc(C(N)=O)nc3C2)ccn1` [[^11C]14a, 4-(2-fluoro-4-(methoxy-^11C)phenyl)-7-((2-methoxy-pyridin-4-yl)methyl)-5,6,7,8-tetrahydro-1,7-naphthyridine-2-carboxamide], at mGlu2 [1] (SD rats, at 2.5 min), the “Peak uptake in the striatum” value stood at 1.7 SUV. In addition, at mGlu2 [1] (SD rats, i.v.), the “Time of peak radioactivity in brain regions” value was 2.5 min. On mGlu2 [1] (pretreatment with 14a (1 mg/kg)), the In vivo specificity result is recorded as “low-to-modest”. Besides, the “Decrease of region-to-pons ratios under blocking” value on mGlu2 [2] is recorded as 17-54%.

Consider `[11CH3]Oc1ccc(C2CCN(c3ccn(CC4CC4)c(=O)c3C#N)CC2)cc1` [[^11C]CMDC, 1-(cyclopropylmethyl)-4-(4-[^11C]methoxyphenyl)-piperidin-1-yl-2-oxo-1,2-dihydropyridine-3-carbonitrile], for which the IC50 in the data set with mGlu2 [3] was 98 nM.

For the molecule `[11CH3]Oc1cccc(CC[C@@](N)(C(=O)O)[C@H]2C[C@@H]2C(=O)O)c1` [[^11C]CMG], the IC50 with mGlu2 [3] is 94 nM.

Regarding `[11CH3]Oc1c(F)ccc(F)c1C1CCN(c2ccn3c(CC4CC4)nnc3c2Cl)CC1` [[^11C]JNJ42491293], the IC50 in the data set on mGlu2 [3] was 7.5 nM.
